From publication PMC10951340, “Two DOT1 enzymes cooperatively mediate efficient ubiquitin-independent histone H3 lysine 76 tri-methylation in kinetoplastids” (Nature Communications, 2024)

Columns and labels:
[1] = target: T1, Δ42-DOT1A (Trypanosoma brucei, UniProt Q581Z0); settings: pH 8.5, on ice, 254 nm 1 h; covalent photo-cross-link; labelled compound
[2] = target: T2, full-length DOT1A (Trypanosoma brucei, UniProt Q581Z0); experiment: 3H-methyl incorporation into nucleosome; quantitative MS of H3K76; format: biochemical; settings: co-substrate T. brucei nucleosome, pH 8.5, 25 °C; labelled compound
T2 construct: full length (295 residues), Sf9 cells, His6-tag cut with PreScission
T2 sequence (Q581Z0 1-295): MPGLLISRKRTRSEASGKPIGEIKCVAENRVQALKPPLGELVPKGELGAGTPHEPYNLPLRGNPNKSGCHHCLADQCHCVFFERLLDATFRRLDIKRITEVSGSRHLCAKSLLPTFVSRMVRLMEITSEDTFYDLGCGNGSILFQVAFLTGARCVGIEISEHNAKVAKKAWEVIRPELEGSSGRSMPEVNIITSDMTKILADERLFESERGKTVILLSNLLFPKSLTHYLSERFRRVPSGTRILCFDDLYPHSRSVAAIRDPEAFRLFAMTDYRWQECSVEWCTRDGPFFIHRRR

[3] = target: Δ27-DOT1B (Trypanosoma brucei, UniProt Q4GZF2); settings: co-substrate T. brucei nucleosome, pH 8.5, 25 °C; labelled compound
[4] = target: T1, Δ42-DOT1A; experiment: X-ray crystal structure of the complex ([…] and […] Å); format: binding; set-up: residues 43-295, E. coli, His6-tag cut with PreScission; settings: active site; co-crystallised with twofold molar excess
[5] = target: T3, DOT1A full-length (Trypanosoma brucei strain Lister 427, UniProt Q581Z0 1-295); experiment: fluorescence polarization; n = 1; FP: 5 nM probe, 100 mM NaCl, 20 mM Tris-HCl pH 7.5, 5% glycerol, 0.5 mM TCEP, 25 °C, 10 min; footprinting at ambient temperature; settings: protein: recombinant; tags: His6 cleaved (PreScission); label: 5'-FAM on strand 1; 5' overhang 2 nt (CC) on strand 2
T3 sequence: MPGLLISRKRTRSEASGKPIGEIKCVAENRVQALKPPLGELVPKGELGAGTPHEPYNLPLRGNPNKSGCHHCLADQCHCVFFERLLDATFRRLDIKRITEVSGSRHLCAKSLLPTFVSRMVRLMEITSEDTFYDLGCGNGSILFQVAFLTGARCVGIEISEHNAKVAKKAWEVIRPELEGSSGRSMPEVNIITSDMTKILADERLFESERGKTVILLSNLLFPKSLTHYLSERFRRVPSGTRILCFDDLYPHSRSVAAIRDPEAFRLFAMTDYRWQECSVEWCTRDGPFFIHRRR

[6] = target: DOT1L (1-420) (human, UniProt Q8TEK3 1-420); experiment: fluorescence polarization; n = 2; FP: 5 nM probe, 100 mM NaCl, 20 mM Tris-HCl pH 7.5, 5% glycerol, 0.5 mM TCEP, 25 °C, 10 min; footprinting at ambient temperature; settings: protein: recombinant; tags: His6 cleaved (PreScission); label: 5'-FAM on strand 1; 5' overhang 2 nt (CC) on strand 2
[7] = target: T4, Δ42-DOT1A (Trypanosoma brucei strain Lister 427, UniProt Q581Z0 43-295); experiment: fluorescence polarization; not detectable; n = 1; FP: 5 nM probe, 100 mM NaCl, 20 mM Tris-HCl pH 7.5, 5% glycerol, 0.5 mM TCEP, 25 °C, 10 min; footprinting at ambient temperature; settings: protein: recombinant; tags: His6 cleaved (PreScission); label: 5'-FAM on strand 1; 5' overhang 2 nt (CC) on strand 2
T4 sequence: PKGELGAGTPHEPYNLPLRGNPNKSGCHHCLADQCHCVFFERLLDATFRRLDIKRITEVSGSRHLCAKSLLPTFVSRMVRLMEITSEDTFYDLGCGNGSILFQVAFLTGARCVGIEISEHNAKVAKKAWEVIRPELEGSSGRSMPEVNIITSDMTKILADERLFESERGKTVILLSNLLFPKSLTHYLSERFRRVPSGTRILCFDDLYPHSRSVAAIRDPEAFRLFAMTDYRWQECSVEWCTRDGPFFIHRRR

DOT1L (1-420), sequence (Q8TEK3 1-420): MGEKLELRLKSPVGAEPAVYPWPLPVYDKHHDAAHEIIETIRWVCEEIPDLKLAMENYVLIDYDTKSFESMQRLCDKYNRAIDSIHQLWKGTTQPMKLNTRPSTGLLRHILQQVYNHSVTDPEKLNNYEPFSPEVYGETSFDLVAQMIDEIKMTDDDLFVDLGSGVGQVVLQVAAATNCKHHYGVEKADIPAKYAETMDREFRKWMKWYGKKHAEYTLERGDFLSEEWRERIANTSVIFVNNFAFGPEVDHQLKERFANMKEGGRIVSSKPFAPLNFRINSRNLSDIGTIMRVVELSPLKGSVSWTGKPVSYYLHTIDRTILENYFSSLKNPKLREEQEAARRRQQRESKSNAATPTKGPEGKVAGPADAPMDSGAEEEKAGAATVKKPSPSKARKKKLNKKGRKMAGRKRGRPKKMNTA
Δ27-DOT1B, sequence (Q4GZF2 entry or part of it, stated change not applied): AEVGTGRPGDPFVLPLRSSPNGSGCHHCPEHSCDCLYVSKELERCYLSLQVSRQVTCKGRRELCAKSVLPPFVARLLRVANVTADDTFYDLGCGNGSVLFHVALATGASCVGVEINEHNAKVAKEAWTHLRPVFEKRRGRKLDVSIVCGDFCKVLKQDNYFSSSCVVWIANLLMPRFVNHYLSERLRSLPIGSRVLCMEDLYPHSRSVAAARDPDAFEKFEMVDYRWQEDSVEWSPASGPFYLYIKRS

Molecule: C[S+](CC[C@H](N)C(=O)O)C[C@H]1O[C@@H](n2cnc3c(N)ncnc32)[C@H](O)[C@@H]1O (stereo partly shown) [AdoMet]
- UV cross-linking of [methyl-3H]AdoMet, SDS-PAGE fluorography [1]: AdoMet binding analyzed by cross-linking experiments showing Coomassie stain (middle) and fluorography (bottom)
- 3H-methyl incorporation into nucleosome; quantitative MS of H3K76 [2]: Methyltransferase activity of full-length DOT1A, Δ42-DOT1A, and Δ27-DOT1B toward the recombinant T. brucei nucleosome
- 3H-methyl incorporation into nucleosome; quantitative MS of H3K76 [3]: Δ27-DOT1B showed significant methyltransferase activity by measuring tritium incorporation from [methyl-^3H] AdoMet in vitro

Molecule: Nc1ncnc2c1ncn2[C@@H]1O[C@H](CSCC[C@H](N)C(=O)O)[C@@H](O)[C@H]1O [AdoHcy]
- X-ray crystal structure of the complex (2.1 and 1.9 Å) [4]: Δ42-DOT1A crystallized in complex with the methyl donor product AdoHcy in two different crystal forms

B1: FAM-dsDNA probe (dsDNA)
DNA 1: CTACAGTTCGTCAGGATTCC
DNA 2: CCGGAATCCTGACGAACTGTAG
- Kd [5]: 900 ± 200 nM
- Kd [6]: 110 ± 20 nM
- binding result [7]: no binding
